In PubChem BioAssay AID330 (DTP/NCI, 2004):
Several values for one entry are separate records, joined by “and”; a condition that tells them apart may be missing. Identical values can stand only once. Inconclusive results and toxic doses are left out. How the source made its calls: active means survival T/C of 150% or more; inactive means T/C below 125% in these data.

Test system: P388 leukemia ip, CD2F1 mice, survival T/C
Assay: NCI In Vivo Anticancer Drug Screen. Data for tumor model P388 Leukemia (intraperitoneal) in CD2F1 (CDF1) mice
Conditions: endpoint: median survival time, schedule: Q01DX009 (ip), higher = longer survival
Summary of the method: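 Mice carrying the transplanted tumor received test compound or vehicle. Survival was recorded in each group, and the value is the treated-group measurement divided by that of the vehicle-treated control group.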

Measured: T/C

Cc1ccc(C(=O)[Se][Se]C(=O)c2ccc(C)cc2)cc1
inactive: dose: 6.25 mg/kg/injection, vehicle: saline with Tween-80 98 % of control | dose: 12.5 mg/kg/injection, vehicle: saline with Tween-80 117 % of control | dose: 25.0 mg/kg/injection, vehicle: saline with Tween-80 104 % of control and 112 % of control

[CH3][Sn]([c]1ccccc1)[c]1ccccc1
inactive: dose: 50.0 mg/kg/injection, vehicle: saline 105 % of control | dose: 100.0 mg/kg/injection, vehicle: saline 98 % of control | dose: 200.0 mg/kg/injection, vehicle: saline 113 % of control
